In US9663764B2, “Generation of cardiomyocytes from human pluripotent stem cells” (Wisconsin Alumni Research Foundation, priority 2011, dated 2017):

What was measured:
Format in all cases: cell-based, human
[1] = tested on: 19-9-11 shcat-2 and scramble lines; assay: Flow cytometry of Oct4 and brachyury in CH-treated 19-9-11 shcat-2 and scramble lines; settings: for cells expressing Oct4: 4 days of CH (12 μM) in mTeSR1
Experimental: Flow Cytometry: Cells were dissociated into single cells and then fixed with 1% paraformaldehyde for 20 min at room temperature and stained with primary and secondary antibodies in PBS plus 0.1% Triton X-100 and 0.5% BSA. For the cell proliferation assay, a 17-hour pulse of BrdU was performed to identify dividing cardiomyocytes (Zhang et al., Circ. Res. 104, e30-41 (2009)). Data were collected on a FACSCaliber flow cytometer (Beckton Dickinson) and analyzed using FlowJo. To test whether induction of cardiomyocyte differentiation by GSK3 inhibitors requires β-catenin, the inventors treated the shcat-2 and scramble 19-9-11 lines with CH in mTeSR1 medium. While the shcat-2 line maintained an undifferentiated morphology, the scramble line appeared to undergo differentiation (FIG. 2E), similar to non-transduced lines treated with CH (FIGS. 1B and 2B). Induction of differentiation following CH treatment in the scramble control was further indicated by diminished SOX2 and NANOG expression at day 4 (FIG. 3C). […] After 4 days of CH treatment in mTeSR1, the percentage of cells expressing Oct4 decreased to 61% in the scramble line, while 98% of the shcat-2 cells expressed Oct4 (FIG. 3D). […] To better understand early mesoderm induction via GSK3 inhibition, the inventors analyzed expression of the early mesoderm gene T in scramble and shcat-2 19-9-11 lines. As CH concentration increased, the ratio of T expression in scramble to the shcat-2 line increased (FIG. 3E). Less than 2% of shcat-2 cells expressed brachyury upon exposure to different concentrations of CH treatment for 4 days.

[2] = tested on: BMP2, BMP4 and NODAL expression in 19-9-11 ishcat-2 cells; assay: RT-PCR of TGFβ pathway genes during CH-induced differentiation; settings: upon 12 μM CH treatment
Experimental: RT-PCR and Quantitative RT-PCR: Total RNA was prepared with the RNeasy mini kit (QIAGEN) and treated with DNase (QIAGEN). 1 μg RNA was reverse transcribed into cDNA via Oligo (dT) with Superscript III Reverse Transcriptase (Invitrogen). Real-time quantitative PCR was done in triplicate with iQ SYBR Green SuperMix (Bio-Rad). RT-PCR was done with Gotaq Master Mix (Promega) and then subjected to 2% agarose gel electrophoresis. ACTB was used as an endogenous control. To determine whether canonical Wnt signaling requires TGFβ superfamily signaling to induce cardiogenesis, the inventors quantified cTnT+ cell generation in 19-9-11 […]-2 cells when Activin A and BMP4 signaling antagonists were presented during the first 24 hr of cardiomyocyte induction with 12 μM CH. All samples were treated with dox at 48 hours. […] To further investigate the role of TGFβ superfamily signaling in Wnt pathway-mediated cardiogenesis the inventors assessed Smad1/5 and Smad2 phosphorylation, downstream of BMP4 and Activin A signaling respectively. As expected, substantial Smad1/5 and Smad2 phosphorylation was detected in cells that had been treated with Activin A and BMP4 (FIGS. 9B and 10A).

H9-7TGP cells = assay: Immunofluorescent analysis of CH-induced H9-7TGP GFP+ cells; settings: 12 μM CHIR99021 in mTeSR1 for 4 days
Experimental: Immunostaining: Cells were fixed with 4% paraformaldehyde for 15 min at room temperature and then stained with primary and secondary antibodies in PBS plus 0.4% Triton X-100 and 5% non-fat dry milk (Bio-Rad). Nuclei were stained with Gold Anti-fade Reagent with DAPI (Invitrogen). An epifluorescence microscope (Leica DM IRB) with a QImaging® Retiga 4000R camera was used for imaging analysis. In order to probe the activation of canonical Wnt/β-catenin signaling during hPS cell specification to cardiomyocytes, the inventors generated a series of promoter-reporter cell lines in H1 and H9 hESC, and 19-9-11 human iPSC lines. These reporter lines, integrated with a lentiviral 7TGP vector, express GFP under control of a consensus TCF/LEF binding sequence promoter which reports β-catenin activation (FIG. 2A) (Fuerer and Nusse, PLoS One 5:e9370 (2010)). […] Approximately 50% of H9-7TGP cells expressed GFP at 4 days post-addition of 15 μM CH.

[3] = tested on: 19-9-11 shcat-2 and scramble lines; assay: Nanog/Isl1 immunostaining of CH-treated 19-9-11 shcat-2 and scramble lines
Experimental: Immunostaining: Cells were fixed with 4% paraformaldehyde for 15 min at room temperature and then stained with primary and secondary antibodies in PBS plus 0.4% Triton X-100 and 5% non-fat dry milk (Bio-Rad). Nuclei were stained with Gold Anti-fade Reagent with DAPI (Invitrogen). An epifluorescence microscope (Leica DM IRB) with a QImaging® Retiga 4000R camera was used for imaging analysis. To test whether induction of cardiomyocyte differentiation by GSK3 inhibitors requires β-catenin, the inventors treated the shcat-2 and scramble 19-9-11 lines with CH in mTeSR1 medium. While the shcat-2 line maintained an undifferentiated morphology, the scramble line appeared to undergo differentiation (FIG. 2E), similar to non-transduced lines treated with CH (FIGS. 1B and 2B). Induction of differentiation following CH treatment in the scramble control was further indicated by diminished SOX2 and NANOG expression at day 4 (FIG. 3C). […] After 4 days of CH treatment in mTeSR1, the percentage of cells expressing Oct4 decreased to 61% in the scramble line, while 98% of the shcat-2 cells expressed Oct4 (FIG. 3D). […] To better understand early mesoderm induction via GSK3 inhibition, the inventors analyzed expression of the early mesoderm gene T in scramble and shcat-2 19-9-11 lines. As CH concentration increased, the ratio of T expression in scramble to the shcat-2 line increased (FIG. 3E). […]

Structure (SMILES): Cc1c[nH]c(-c2cnc(NCCNc3ccc(C#N)cn3)nc2-c2ccc(Cl)cc2Cl)n1 [CH]
- brachyury+ cells ([1]; scramble line, 15 μM CH for 4 days): 76%
- cells expressing Oct4 ([1]; scramble line): 61%
- cells expressing Oct4 ([1]; shcat-2 cells): 98%
- cells expressing brachyury ([1]; shcat-2 cells, different concentrations of CH for 4 days): Less than 2%
- NODAL expression [2]: transient upregulation
- BMP2 and BMP4 gene expression ([2]; throughout differentiation): gradually upregulated
- Oct4, Isl1 and Nkx2.5 expression in CH-induced GFP+ cells (H9-7TGP cells): did not express Oct4, but did express Isl1 and Nkx2.5
- Nanog/Isl1 immunostaining ([3]; scramble cell line, 15 μM CH in mTeSR1 for 4 days): substantial numbers of Nanog−/Isl1+ cells
- Nanog/Isl1 immunostaining ([3]; shcat-2 cells treated with CH): only Nanog+/Isl1− cells
